Data as given in patent US10206906B2, “Synergistic combination of a phenolic-rich maple syrup extract and an antibiotic” (priority 2015, dated 2019).
In brackets after ≈: the same amount, converted by molar mass.

Assays:
[1] = test system: P. aeruginosa PAO1 biofilm; test: Biofilm formation, microtitre plate crystal violet assay; format: cell-based, Pseudomonas aeruginosa; conditions: p<0.05
Description: (§1) Biofilm formation is quantified using the standard microtitre plate model. […] Aliquots (100 μL) of these cultures are transferred into the wells of polystyrene, flat bottom, non-treated 96 well plates (Falcon™, Corning™), in triplicate. For all assays, biofilms are allowed to develop for 16 h at 37° C. under static conditions, after which OD600 values are recorded, the spent broth is decanted from the wells, and the wells are gently rinsed three times with DI water. The washed biofilm is stained with crystal violet (CV). For CV stain assay, 100 μL of 0.1% (w/v) CV is loaded in each well and the plates are incubated for 15 min under static conditions at room temperature. The wells are subsequently rinsed with DI water to remove excess dye and the CV adsorbed to the biomass in each well is solubilized in 100 μL of absolute ethanol for 10 min. The solubilized CV is then quantified (as OD570) using a microplate reader. Control experiments are performed with cell-free broth to adjust for the background signal.

[2] = test system: P. aeruginosa PA14 biofilm; test: as above; format: cell-based, Pseudomonas aeruginosa; conditions: p<0.05
Description: as §1

[3] = test system: P. mirabilis HI4320; test: Checkerboard microdilution assay (growth inhibition synergy); format: cell-based, Proteus mirabilis
Summary of the method: (§2)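 Two-fold serial dilutions of each agent were crossed in MHB-II, inoculated with 10^6 CFU mL^−1 and incubated static at 37° C. for 18 h. FICI is the sum of each component's MIC in combination divided by its MIC alone; […] synergy, 0.5–1 indifference, >4 antagonism.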

[4] = test system: P. aeruginosa PA14; test: Bacterial colony forming ability (CFU counts after exposure); format: cell-based, Pseudomonas aeruginosa; conditions: log decrease vs untreated control, 4 × MIC, 10 min, CTAB 10 μM
Description: (§3) The BacLight kit (L-13152, Invitrogen™, Life Technologies Inc., Canada) is used to assess cell membrane damage. Overnight bacterial cultures are diluted 1:40 in fresh MHBII broth to a final volume of 5 mL, grown to an OD600 of 0.5-0.6, washed with filter-sterilized 10 mM phosphate buffered saline (PBS, pH 7.0) and resuspended in 1/10 of the original volume. […] Cultures are incubated at room temperature (21±2° C.) on a tube rocker for 10 min. At the end of the incubation period, an aliquot is taken for CFU counts and the remaining suspension is washed with 10 mM PBS and resuspended to an OD600) of 0.3. An aliquot (100 μL) of each bacterial suspension is removed and added to a 96-well, black, clear-bottom plate (Corning™, Fisher Scientific, ON, Canada) along with an equal volume of the BacLight™ reagent (2× stock solution, L13152, Invitrogen™, Life Technologies Inc., Canada) and the plates are incubated for 10 min at room temperature in the dark. At the end of the incubation period, fluorescence intensity is recorded for both kit components, SYTO-9 (ex/em 485/530 nm) and propidium iodide (ex/em 485/645 nm), using the microplate reader. Fluorescence readings from samples are normalized to the values obtained from untreated control to determine the ratio of membrane compromised cells to cells with intact membrane. Cetyltrimethylammonium bromide (CTAB, Sigma-Aldrich Canada), a cationic detergent that is known to cause membrane damage, is used at concentration of 10 μM as a positive control for membrane disruption.

[5] = test system: P. aeruginosa PAO1; test: as above; format: cell-based, Pseudomonas aeruginosa; conditions: log decrease vs untreated control; 4 × MIC, 10 min; CTAB 10 μM
Description: as §3

[6] = test system: E. coli CFT073; test: Checkerboard microdilution assay (growth inhibition synergy); format: cell-based, Escherichia coli
Summary of the method: as §2

[7] = test system: P. mirabilis HI4320; test: Determination of minimum inhibitory concentration (MIC); format: cell-based; conditions: Proteus mirabilis, HI4320, 18 h
[8] = test system: E. coli CFT073; test: as above; format: cell-based; conditions: Escherichia coli, CFT073, 18 h
[9] = test system: P. aeruginosa PA14; test: as above; format: cell-based; conditions: Pseudomonas aeruginosa, PA14, 18 h
[10] = test system: P. aeruginosa PAO1; test: as above; format: cell-based; conditions: Pseudomonas aeruginosa, PAO1, 18 h
[11] = test system: P. aeruginosa PA14; test: Checkerboard microdilution assay (growth inhibition synergy); format: cell-based, Pseudomonas aeruginosa
Summary of the method: as §2

[12] = test system: P. aeruginosa PAO1; test: as above; format: cell-based, Pseudomonas aeruginosa
Summary of the method: as §2

[13] = substance alone at sub-lethal concentrations, 16 h
[14] = with ciprofloxacin, both at sub-lethal concentrations
[15] = ciprofloxacin in combination with the labelled phenolic constituent
[16] = labelled constituent + gallic acid, * = synergistic
[17] = labelled constituent combined with gallic acid
[18] = labelled phenolic constituent in combination with ciprofloxacin

Q: For `Oc1ccccc1O` [catechol, 1,2-dihydroxybenzene], which “inhibition of monoculture biofilm formation (OD570/OD600)” value [1, 13] is on record?
A: significant inhibitory effects

Q: What about the “inhibitory effect on biofilm formation, with ciprofloxacin” value [1, 14] of the same compound?
A: significant inhibitory effects

Q: What about the “inhibition of monoculture biofilm formation (OD570/OD600)” value [2, 13] of the same compound?
A: significant inhibitory effects

Q: What about the “inhibitory effect on biofilm formation, with ciprofloxacin” value [2, 14] of the same compound?
A: significant inhibitory effects

Q: What about the FIC of ciprofloxacin [3, 15] of the same compound?
A: 0.25

Q: And the “FICI, gallic acid” value [3, 16]?
A: 0.37*

Q: And the “FIC, gallic acid” value [3, 17]?
A: 0.13

Q: And the FIC of compound [3, 18]?
A: 0.25

Q: What about the “Bacterial colony forming ability (Δ log CFU mL^−1)” value [4] of the same compound?
A: 1.9 Δ log CFU mL^−1

Q: And the “Bacterial colony forming ability (Δ log CFU mL^−1)” value ([4]; listed as Catechol)?
A: ≥ 1.5 Δ log CFU mL^−1

Q: And the “Bacterial colony forming ability (Δ log CFU mL^−1)” value [5]?
A: 1.5 Δ log CFU mL^−1

Q: And the FIC of ciprofloxacin [6, 15]?
A: 0.25

Q: And the “FICI, gallic acid” value [6, 16]?
A: 0.25*

Q: What about the “FIC, gallic acid” value [6, 17] of the same compound?
A: 0.13

Q: What about the FIC of compound [6, 18] of the same compound?
A: 0.25

Q: What about the MIC [7] of the same compound?
A: 1250 mg/L (≈ 11.4 mM)

Q: What about the MIC [8] of the same compound?
A: 1250 mg/L (≈ 11.4 mM)

Q: And the MIC [9]?
A: 2500 mg/L (≈ 22.7 mM)

Q: What about the MIC [10] of the same compound?
A: 2500 mg/L (≈ 22.7 mM)

Q: What about the FIC of ciprofloxacin [11, 15] of the same compound?
A: 0.25

Q: And the “FICI, gallic acid” value [11, 16]?
A: 0.37*

Q: What about the “FIC, gallic acid” value [11, 17] of the same compound?
A: 0.25

Q: What about the FIC of compound [11, 18] of the same compound?
A: 0.25

Q: What about the FIC of ciprofloxacin [12, 15] of the same compound?
A: 0.25

Q: And the “FICI, gallic acid” value [12, 16]?
A: 0.5*

Q: What about the “FIC, gallic acid” value [12, 17] of the same compound?
A: 0.25

Q: What about the FIC of compound [12, 18] of the same compound?
A: 0.25
